Data published in PubChem BioAssay (NCI).
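A five-concentration, 48-hour dose response in 96-well plates underlies each endpoint, interpolated linearly between surrounding concentrations. TGI is the concentration that stops growth completely.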

Assays:
Assay in all cases: NCI-60 cell line screen, 48 h
PC-3 prostate = system: PC-3 prostate
NCI-H23 lung = system: NCI-H23 lung
U251 CNS = system: U251 CNS
SF-539 CNS = system: SF-539 CNS
HCC-2998 colon = system: HCC-2998 colon
COLO 205 colon = system: COLO 205 colon
HCT-15 colon = system: HCT-15 colon
ACHN renal = system: ACHN renal
KM12 colon = system: KM12 colon
NCI/ADR-RES ovarian = system: NCI/ADR-RES ovarian
OVCAR-3 ovarian = system: OVCAR-3 ovarian
HL-60(TB) leukemia = system: HL-60(TB) leukemia
NCI-H522 lung = system: NCI-H522 lung

Structure (SMILES)	TGI (PC-3 prostate)	TGI (NCI-H23 lung)	TGI (U251 CNS)	TGI (SF-539 CNS)	TGI (HCC-2998 colon)	TGI (COLO 205 colon)	TGI (HCT-15 colon)	TGI (ACHN renal)	TGI (KM12 colon)	TGI (NCI/ADR-RES ovarian)	TGI (OVCAR-3 ovarian)	TGI (HL-60(TB) leukemia)	TGI (NCI-H522 lung)
O=[N+]([O-])/C(C(Cl)=C(Cl)Cl)=C(\Nc1cccc2cccnc12)Sc1ccccc1	80.5 µM	37.6 µM	54.2 µM	40.4 µM	> 100 µM	31.6 µM	34.4 µM	71.1 µM	28.6 µM	63.5 µM	28.3 µM		
C[C@@H]1C(=O)O[C@@H]2C[C@@]1(C)[C@@H]1C(=O)C3(O)OC14C2(C)OC(=O)[C@@]4(O)CCC1C3C(O)C=C2CC=CC(=O)[C@@]21C (stereo partly drawn)	> 100 µM		> 100 µM	53.5 µM	> 100 µM	> 100 µM	> 100 µM	> 100 µM	71.1 µM	> 100 µM		40.8 µM	
CNc1nc2c(C)ccc3nc(N(C)C)nc-3c2n1C	> 10 µM	> 10 µM	> 10 µM	> 10 µM	> 10 µM	> 10 µM	> 10 µM	> 10 µM	> 10 µM	> 10 µM	> 10 µM		> 10 µM
CCOC(=O)C(C)c1nc2cc(F)c(N3CCOCC3)cc2[nH]c1=O (stereo not drawn)	> 100 µM	> 100 µM	> 100 µM	> 100 µM	> 100 µM	> 100 µM	> 100 µM	> 100 µM	> 100 µM	> 100 µM	> 100 µM		> 100 µM
CC1CC/C(=C\c2ccc(Cl)cc2)C(=O)/C1=C\c1ccc(Cl)cc1 (stereo not drawn)	> 100 µM		> 100 µM			73 µM	50.4 µM	> 100 µM	41.5 µM				
CN(OC(=O)CC(=O)c1ccccc1)C(=O)Cc1ccccc1		> 100 µM	> 100 µM	> 100 µM		> 100 µM	> 100 µM	> 100 µM	> 100 µM		> 100 µM	> 100 µM	> 100 µM
COC(=O)C1=C(O)C(C(=O)OC)[C@]2(O)[C@H](C(=O)OC)[C@H]1C[C@@H](c1ccc(O)cc1)[C@H]2C(=O)OC (stereo partly drawn)	76.4 µM	> 100 µM	50.1 µM	88.3 µM	46.5 µM	> 100 µM	> 100 µM	> 100 µM	49.9 µM	> 100 µM	35.6 µM	95.1 µM	
COC(=O)C1=C(O)C(C(=O)OC)[C@]2(O)[C@H](C(=O)OC)[C@H]1C[C@@H](c1ccc(Cl)cc1Cl)[C@H]2C(=O)OC (stereo partly drawn)	23.5 µM	19.1 µM	14.4 µM	17.5 µM	21.9 µM	20.9 µM	27.6 µM	42.4 µM	32.9 µM	38.2 µM	24.9 µM	7.9 µM	
COC(=O)/C=C/COCC1C2CCC(=O)C21 (stereo not drawn)	> 100 µM	> 100 µM	> 100 µM	> 100 µM	> 100 µM	> 100 µM	> 100 µM	> 100 µM	> 100 µM	> 100 µM	> 100 µM		> 100 µM
C=CCN1C(=O)/C(=C/c2ccccc2)N=C1SC/C=C/C	55.8 µM	> 100 µM	> 100 µM	> 100 µM	76.6 µM	> 100 µM	> 100 µM	> 100 µM	> 100 µM	> 100 µM	> 100 µM		> 100 µM
O=C(/C=C/c1ccsc1)c1cccs1	> 100 µM	68 µM	44.2 µM	> 100 µM	34.7 µM	94.2 µM	37 µM	> 100 µM	35.1 µM	44.9 µM	57.3 µM		39.4 µM
CCOC(=O)Nn1cnnc1Cc1ccccc1	> 100 µM	> 100 µM	> 100 µM	> 100 µM	> 100 µM	> 100 µM	> 100 µM	> 100 µM	> 100 µM	> 100 µM	> 100 µM		> 100 µM
COc1c2c(c(OC)c3c(=O)cc(C/C(=N/NC(=O)C[n+]4ccccc4)C(=O)Nc4cc(C)ccc4C)oc13)OCO2		> 100 µM	> 100 µM	> 100 µM	> 100 µM	> 100 µM	> 100 µM	> 100 µM	> 100 µM		> 100 µM	> 100 µM	> 100 µM
CCCCC1=C(C(=O)N2CCOCC2)C2(OCCO2)C1Cl (stereo not drawn)	> 100 µM	> 100 µM	> 100 µM	37.8 µM		54.3 µM	> 100 µM	52.1 µM	41.5 µM	> 100 µM		> 100 µM	99.3 µM
COC1=C(OC)C(=O)c2cc(SC)c(=O)c(SC)cc2C1=O		20.2 µM	38.7 µM	24.8 µM	> 100 µM	> 100 µM	> 100 µM	28.9 µM	> 100 µM		23.4 µM	3.97 µM	34.9 µM
Cc1c2[nH]c3ccc(Br)cc3c2c(C)c2[nH]ccc(=O)c12		37.8 µM		32 µM	31.1 µM	27.1 µM	30.4 µM	22.5 µM	25.6 µM		32.2 µM	38.5 µM	28.5 µM
CCCOP1(=O)C=C(C)C(Cl)=C(C)C1 (stereo not drawn)		37 µM	59.3 µM	63.8 µM	> 100 µM	24.4 µM	58.4 µM	52.5 µM	43 µM		70.3 µM	81.6 µM	28.5 µM
CC(SC(=S)N1CCCC1)C(=O)Nc1nnc(-c2ccc(Cl)cc2)o1 (stereo not drawn)	> 100 µM	> 100 µM	> 100 µM	> 100 µM	> 100 µM	> 100 µM	> 100 µM	> 100 µM		> 100 µM	> 100 µM	0.143 µM	
CN1NC2=NCCN=C3NN(C)C(=NCCN=C1S2)S3		> 100 µM	> 100 µM	> 100 µM		> 100 µM	> 100 µM	> 100 µM	> 100 µM			> 100 µM	> 100 µM
COc1ccc(OC)c2sc(N3C(=O)/C(=C/c4ccc(N(C)C)cc4)N=C3c3ccccc3)nc12	81.2 µM		> 100 µM	> 100 µM	> 100 µM	> 100 µM	> 100 µM	> 100 µM	> 100 µM	> 100 µM	> 100 µM	64.3 µM	
